{"source": "paper PMC9403976", "about": "“Elucidating the path to Plasmodium prolyl-tRNA synthetase inhibitors that overcome halofuginone resistance” (Nature Communications, 2022)", "key": {"[1]": {"tested_on": "P. falciparum Dd2-2D4", "assay": "P. falciparum asexual blood stage (ABS) growth assay, SYBR Green, 72 h, wild-type parasites", "assay_type": "cell-based, Plasmodium falciparum", "conditions": "for ABS growth dose-response, normalized signal (Replicates 1-3): Dd2-2D4"}, "[2]": {"tested_on": "halofuginone-induced P. falciparum (elevated proline homeostasis)", "assay": "P. falciparum ABS growth assay, SYBR Green, 72 h, halofuginone-induced parasites", "assay_type": "cell-based, Plasmodium falciparum", "conditions": "Halofuginone-Induced (HFG-Induced)", "how_it_was_run": "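Dd2-derived P. falciparum lines (HFGR-I, halofuginone-induced) at 1% parasitemia and 1% hematocrit in RPMI + 0.5% Albumax were exposed to compounds in triplicate dose-response for 72 h. Growth was read as SYBR Green 1 fluorescence, with 10 μM dihydroartemisinin as kill control and compound-free wells as growth control.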"}, "[3]": {"tested_on": "HFGR-I P. falciparum (elevated proline homeostasis and PfcProRS^L482H)", "assay": "P. falciparum ABS growth assay, SYBR Green, 72 h, HFGR-I parasites", "assay_type": "cell-based, Plasmodium falciparum", "conditions": "HFGR-I", "excerpt": "Parasites were maintained under standard culture conditions as described previously[56],[57]. […] The P. falciparum Dd2 cell lines used in this study (Dd2-2D4, halofuginone-induced, and HFGR-I) have previously undergone whole genome sequencing in our labs. They were also routinely assayed and EC50 values determined using the ABS growth assay (see below) with a panel of standard antimalarial compounds, including halofuginone which has differential activity for the three Dd2 lines used in these experiments. Data were cross-referenced for consistency with literature reported values and data previously acquired in the lab.\nThis assay was performed as previously described. In short, P. falciparum erythrocytic-stage parasites at 1% parasitemia and 1% hematocrit in RPMI + 0.5% Albumax were seeded at 40 μL/well in 384-well plates with test compounds in triplicate, dose-response format with 10 μM dihydroartemisinin as a kill-control and blank (no compound) wells as a growth-control. […] After 72 h, growth was quantified by measuring fluorescence (Molecular Devices SpectraMax iD5) following SYBR Green 1 staining. Data were analyzed in Excel and plotted in PRISM (V. 8.4.3–9.1.0, GraphPad)."}, "[4]": {"molecular_target": "T1, PfcProRS (Plasmodium falciparum, UniProt Q8I5R7)", "T1 construct": "made in house; host or cells: E. coli SoluBL-21", "T1 sequence (Q8I5R7 249-746)": "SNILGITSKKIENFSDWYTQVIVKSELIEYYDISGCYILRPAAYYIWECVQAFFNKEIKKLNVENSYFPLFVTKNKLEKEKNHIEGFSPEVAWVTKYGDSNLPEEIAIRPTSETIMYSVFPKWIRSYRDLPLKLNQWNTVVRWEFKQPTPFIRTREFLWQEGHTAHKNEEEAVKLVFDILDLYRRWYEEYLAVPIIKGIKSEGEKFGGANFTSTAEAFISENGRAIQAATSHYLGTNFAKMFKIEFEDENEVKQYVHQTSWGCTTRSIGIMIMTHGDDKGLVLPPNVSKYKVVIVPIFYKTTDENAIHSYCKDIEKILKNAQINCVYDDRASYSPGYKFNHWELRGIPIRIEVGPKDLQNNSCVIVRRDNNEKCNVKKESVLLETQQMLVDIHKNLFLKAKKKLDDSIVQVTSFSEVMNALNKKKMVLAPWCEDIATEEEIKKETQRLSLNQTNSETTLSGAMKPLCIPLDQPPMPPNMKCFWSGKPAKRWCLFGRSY", "assay_type": "binding", "conditions": "single replicates"}}, "note": "Several values for one entry are separate records, joined by “and”; a condition that tells them apart may be missing. Identical values can stand only once. Like-named read-outs stand apart in the source and are kept apart here."}
{"molecule": "CC(C)(C)OC(=O)N[C@H]1CC[C@@H](C(=O)Nc2nccnc2C(=O)NC2Cc3ccccc3C2)CC1", "note": "[compound 6]", "values": [{"measurement": "ABS growth dose-response, normalized signal (Replicates 1-3)", "setting": "[1]; Log[inhibitor] (M) -4.699", "result": 0}, {"measurement": "ABS growth dose-response, normalized signal (Replicates 1-3)", "setting": "[1]; Log[inhibitor] (M) -5.301", "result": 1}, {"measurement": "ABS growth dose-response, normalized signal (Replicates 1-3)", "setting": "[1]; Log[inhibitor] (M) -5.903", "result": 4}, {"measurement": "EC50", "setting": "[1]; Plasmodium falciparum, DD2, SI Fig 16b, values on -log scale, read-out: ABS - Dd2-2D4 (converted)", "result": 508, "unit": "nM"}, {"measurement": "ABS growth dose-response, normalized signal (Replicates 1-3)", "setting": "[2]; Log[inhibitor] (M) -5.000", "result": "38 and 37 and 33"}, {"measurement": "ABS growth dose-response, normalized signal (Replicates 1-3)", "setting": "[2]; Log[inhibitor] (M) -5.301", "result": "80 and 73 and 79"}, {"measurement": "ABS growth dose-response, normalized signal (Replicates 1-3)", "setting": "[2]; Log[inhibitor] (M) -5.602", "result": "89 and 91 and 90"}, {"measurement": "ABS growth dose-response, normalized signal (Replicates 1-3)", "setting": "[2]; Log[inhibitor] (M) -5.903", "result": "99 and 97 and 98"}, {"measurement": "ABS growth dose-response, normalized signal (Replicates 1-3)", "setting": "[2]; Log[inhibitor] (M) -6.204", "result": "99 and 98 and 96"}, {"measurement": "ABS growth dose-response, normalized signal (Replicates 1-3)", "setting": "[2]; Log[inhibitor] (M) -6.505", "result": "98 and 107 and 101"}, {"measurement": "ABS growth dose-response, normalized signal (Replicates 1-3)", "setting": "[2]; Log[inhibitor] (M) -6.806", "result": "93 and 91 and 99"}, {"measurement": "ABS growth dose-response, normalized signal (Replicates 1-3)", "setting": "[2]; Log[inhibitor] (M) -7.107", "result": "91 and 93 and 96"}, {"measurement": "ABS growth dose-response, normalized signal (Replicates 1-3)", "setting": "[2]; Log[inhibitor] (M) -7.408", "result": "96 and 93 and 99"}, {"measurement": "ABS growth dose-response, normalized signal (Replicates 1-3)", "setting": "[2]; Log[inhibitor] (M) -7.709", "result": "100 and 98 (2×)"}, {"measurement": "ABS growth dose-response, normalized signal (Replicates 1-3)", "setting": "[2]; Log[inhibitor] (M) -8.010", "result": "99 (2×) and 97"}, {"measurement": "ABS growth dose-response, normalized signal (Replicates 1-3)", "setting": "[2]; Log[inhibitor] (M) -8.311", "result": "98 and 97 and 96"}, {"measurement": "ABS growth dose-response, normalized signal (Replicates 1-3)", "setting": "[3]; Log[inhibitor] (M) -5.000", "result": "30 and 31 and 35"}, {"measurement": "ABS growth dose-response, normalized signal (Replicates 1-3)", "setting": "[3]; Log[inhibitor] (M) -5.301", "result": "64 and 68 and 70"}, {"measurement": "ABS growth dose-response, normalized signal (Replicates 1-3)", "setting": "[3]; Log[inhibitor] (M) -5.602", "result": "83 (2×) and 82"}, {"measurement": "ABS growth dose-response, normalized signal (Replicates 1-3)", "setting": "[3]; Log[inhibitor] (M) -5.903", "result": "92 and 97 and 94"}, {"measurement": "ABS growth dose-response, normalized signal (Replicates 1-3)", "setting": "[3]; Log[inhibitor] (M) -6.204", "result": "105 and 106 and 108"}, {"measurement": "ABS growth dose-response, normalized signal (Replicates 1-3)", "setting": "[3]; Log[inhibitor] (M) -6.505", "result": "108 (2×) and 110"}, {"measurement": "ABS growth dose-response, normalized signal (Replicates 1-3)", "setting": "[3]; Log[inhibitor] (M) -6.806", "result": "85 and 90 (2×)"}, {"measurement": "ABS growth dose-response, normalized signal (Replicates 1-3)", "setting": "[3]; Log[inhibitor] (M) -7.107", "result": "91 and 92 and 97"}, {"measurement": "ABS growth dose-response, normalized signal (Replicates 1-3)", "setting": "[3]; Log[inhibitor] (M) -7.408", "result": "92 and 97 and 99"}, {"measurement": "ABS growth dose-response, normalized signal (Replicates 1-3)", "setting": "[3]; Log[inhibitor] (M) -7.709", "result": "95 and 99 (2×)"}, {"measurement": "ABS growth dose-response, normalized signal (Replicates 1-3)", "setting": "[3]; Log[inhibitor] (M) -8.010", "result": "107 and 102 and 97"}, {"measurement": "ABS growth dose-response, normalized signal (Replicates 1-3)", "setting": "[3]; Log[inhibitor] (M) -8.311", "result": "104 and 108 and 101"}, {"measurement": "dose-response signal (normalized), SI Fig 8", "setting": "[4]; Log[inhibitor] (M) -5.000", "result": "-1.61E-02 and -5.30E-02 and -3.81E-03"}, {"measurement": "dose-response signal (normalized), SI Fig 8", "setting": "[4]; Log[inhibitor] (M) -5.301", "result": "-7.80E-02 and -1.87E-02 and -8.78E-02"}, {"measurement": "dose-response signal (normalized), SI Fig 8", "setting": "[4]; Log[inhibitor] (M) -5.601", "result": "1.78E-02 and -1.26E-02 and 5.92E-03"}, {"measurement": "dose-response signal (normalized), SI Fig 8", "setting": "[4]; Log[inhibitor] (M) -5.904", "result": "6.25E-02 and 5.05E-02 and 9.24E-02"}, {"measurement": "dose-response signal (normalized), SI Fig 8", "setting": "[4]; Log[inhibitor] (M) -6.208", "result": "5.23E-02 and 1.76E-01 and 1.80E-01"}, {"measurement": "dose-response signal (normalized), SI Fig 8", "setting": "[4]; Log[inhibitor] (M) -6.509", "result": "2.25E-01 and 2.68E-01 and 2.02E-01"}, {"measurement": "dose-response signal (normalized), SI Fig 8", "setting": "[4]; Log[inhibitor] (M) -6.796", "result": "4.96E-01 and 4.42E-01 and 4.81E-01"}, {"measurement": "dose-response signal (normalized), SI Fig 8", "setting": "[4]; Log[inhibitor] (M) -7.108", "result": "6.45E-01 and 6.22E-01 and 4.90E-01"}, {"measurement": "dose-response signal (normalized), SI Fig 8", "setting": "[4]; Log[inhibitor] (M) -7.409", "result": "7.15E-01 and 8.22E-01 and 8.32E-01"}, {"measurement": "dose-response signal (normalized), SI Fig 8", "setting": "[4]; Log[inhibitor] (M) -7.710", "result": "9.70E-01 and 9.04E-01 and 8.55E-01"}]}
